What all share (format): in vivo, rat
Assay [1] concerns aged-impaired rats. Description: Radial arm maze, Compound 1 IP alone and in combination with levetiracetam.
Assay [2] has as its system aged-impaired rats. As to the kind of experiment: Radial arm maze with 5-hr delay, acute Compound 1 via PO. As to conditions: Compound 1 10 mg/kg PO, vs vehicle. As for the experimental part:
Food-deprived aged rats maintained at approximately 85% free-feeding weights were tested for their hippocampal-dependent memory in a radial arm maze task under varying doses of Compound 1 (a GABAA α5 receptor agonist):
The radial arm maze apparatus used consisted of eight equidistantly spaced arms. An elevated maze arm (7 cm width×75 cm length) projected from each facet of an octagonal center platform (30 cm diameter, 51.5 cm height). Clear side walls on the arms were 10 cm high and are angled at 65° to form a trough. A food well (4 cm diameter, 2 cm deep) was located at the distal end of each arm. Froot Loops™ (Kellogg Company) were used as rewards. Blocks constructed of Plexiglass™ (30 cm height×12 cm width) could be positioned to prevent entry to any arm. Numerous extra maze cues surrounding the apparatus were also provided. The rats were initially subjected to pre-training (Chappell et al., 1998). Pre-training consisted of a habituation phase, a training phase on the standard win-shift task and another training phase in which a progressively longer delay was imposed between presentation of a subset of arms designated by the experimenter (five arms available and three arms blocked) and completion of the eight-arm win-shift task (i.e., with all eight arms available).
In the habituation phase, rats were familiarized to the maze for a 10-minute session on several days. […]

Assay [3] has as its system aged-impaired rats. As to the kind of experiment: Water maze probe test, acute and chronic Compound 1. An excerpt: Rats were trained and tested in a novel water maze environment to assess the effect of the treatments. The water maze used here was housed in a different room and was surrounded by curtains with a novel set of patterns relative to the maze used for initial assessment of cognitive status. The training and testing protocol used was identical to the spatial learning-activated protocol described in Haberman et al., (2008, Proceedings of the National Academy of Sciences USA, 105, 10601-10606). The task required rats to swim to a […] escape platform at a fixed location in the presence of spatial cues for 8 training trials with an inter-trial interval of 8 min. An hour after the last training trial, rats were given a probe test in the absence of the escape platform (free swim) to assess the memory of the platform location as measured by time spent searching at the target location.
To assess the acute and chronic effects of Compound 1 treatment, rats received 15-16 days of drug injections with assessment on the water maze on the first day (acute effect) and last day (chronic effect) of treatment. Different surrounding spatial cues and escape location in the water maze were used for the initial and subsequent assessments. Compound 1 was given at 10 mg/kg using intraperitoneal injection (IP) at a volume of 1 ml/kg. […]

With `COCc1nnc2n1Cc1c(C#Cc3cnc(OC)s3)ncn1-c1ccc(Cl)cc1-2` [Compound 1], the “efficacy of Compound 1 on its own in the radial arm maze” value in assay [1] (2.5 mg/kg IP) and in assay [1] (5 mg/kg IP) was “subtherapeutic” each time. In addition, the “number of errors in the radial arm maze” value in assay [2] is on record as “fewer errors”. The “time in the target quadrant of the Morris Water Maze” value was “spent more time in the target quadrant” in assay [3] (acute, Compound 1 10 mg/kg IP (first day)) and “spent more time in the target quadrant” in assay [3] (chronic, Compound 1 10 mg/kg IP (last day of 15-16 days)).

Source of the values: patent publication US20220062296A1, “COMBINATIONS OF GABAA ALPHA 5 AGONISTS AND SV2A INHIBITORS AND METHODS OF USING IN THE TREATMENT OF COGNITIVE IMPAIRMENT” (AGENEBIO, INC., priority 2020, published 2022).
